Measurements reported in patent US11498923B2 (Merck Sharp & Dohme Corp., priority 2017, dated 2022).
pKi: −log10 of the molar value.

Target: T1, human A2a receptor (Homo sapiens, UniProt P29274)
T1 construct: purchased Perkin-Elmer RBHA2AM400UA; host or cells: HEK293 cells, used as a membrane preparation
Assay: A2a receptor competition binding assay (Scintillation Proximity)
Conditions: membranes from HEK293 cells expressing human A2a receptor; 0.5 nM tritiated ligand; Cheng-Prusoff; read-out: A2a Ki
Experimental: Binding affinities of compounds of the invention for the human A2a receptor were determined in a competition binding assay using Scintillation Proximity technology. Thus, 0.3 μg of membranes from HEK293 cells expressing the human A2a receptor were incubated with a compound of the invention at concentrations ranging from 3000 nM to 0.15 nM in a reaction mixture containing also 0.5 nM of a tritiated form of 5-amino-7-[2-phenethyl]-2-(furan-2-yl)-7H-pyrazolo[4,3-e][1,2,4]triazolo[1,5-c]pyrimidine (the tritiated compound) and 100 μg of wheat germ agglutin-coated yttrium silicate SPA beads for one hour at room temperature with agitation. The beads were then allowed to settle to the bottom of the wells for 1 hr, after which the membrane-associated radioactivity was determined by scintillation counting in a TopCount microplate reader. Ki values were determined using the Cheng-Prusoff equation.
Summary of Materials and Methods Used in A2a Activity Determination:
HEK293 cells expressing the human, rat, dog or monkey adenosine 2a receptor (Purchased from Perkin-Elmer #RBHA2AM400UA).
The Tritiated compound was prepared according to published methods.
Wheat germ agglutinin-coated yttrium silicate SPA beads (GE Healthcare #RPNQ0023). Dilute to 25 mg/ml in assay buffer.
Assay Buffer was prepared using Dulbecco's calcium and magnesium free phosphate buffered saline+10 mMMgCl2
Adenosine deaminase from calf intestine, 10 mg/2 ml (Roche #10 102 105 001).
A2a antagonist standard (9-chloro-1-(2-furanyl)-[1,2,4]triazolo1,5-c]quinazolin-5-amine from Tocris Bioscience)
Make eight 1:3 serial dilutions in 100% DMSO from a 3 mM compound stock
Transfer 50 nl of compound into a 384-well OptiPlate (Perkin Elmer).
Typically, final concentrations of compound used in the assay ranged from 3000 nM to 0.152 nM.
Dilute a solution of the Tritiated compound to 1.25 nM in assay buffer. This is a 2.5× solution. The final concentration in the assay is 0.5 nM. Calculate the concentration by counting two 5 μl aliquots.
Use 0.25 ug of membrane/well. Dilute membranes to 9.7 μg/ml in assay buffer. Treat with 20 ug/ml adenosine deaminase (ADA) for 15 minutes at room temperature to degrade endogenous adenosine.
Use 100 μg/well wheat germ agglutinin-coated yttrium silicate SPA beads.
Mix ADA-treated membranes and SPA beads together for 30 min prior to assay.
To the Perkin-Elmer Optiplate-384 containing the compound titration add 20 μl of 2.5× solution of the Tritiated compound and 30 μl of the membrane-bead mixture. Incubate for one hour at room temperature with agitation.
Include total binding (assay buffer+1% DMSO) and non-specific binding (CGS15943, 1 μM) wells.
Allow the beads to settle for one hour.
A curve fitting program (i.e., Prism, Activity Base, Chemcart) is used to determine the EC50. The Ki value is calculated using the Cheng-Prusoff equation. Ki=EC50/(1+(radioligand concentration/Kd))

T1 sequence (P29274 whole entry): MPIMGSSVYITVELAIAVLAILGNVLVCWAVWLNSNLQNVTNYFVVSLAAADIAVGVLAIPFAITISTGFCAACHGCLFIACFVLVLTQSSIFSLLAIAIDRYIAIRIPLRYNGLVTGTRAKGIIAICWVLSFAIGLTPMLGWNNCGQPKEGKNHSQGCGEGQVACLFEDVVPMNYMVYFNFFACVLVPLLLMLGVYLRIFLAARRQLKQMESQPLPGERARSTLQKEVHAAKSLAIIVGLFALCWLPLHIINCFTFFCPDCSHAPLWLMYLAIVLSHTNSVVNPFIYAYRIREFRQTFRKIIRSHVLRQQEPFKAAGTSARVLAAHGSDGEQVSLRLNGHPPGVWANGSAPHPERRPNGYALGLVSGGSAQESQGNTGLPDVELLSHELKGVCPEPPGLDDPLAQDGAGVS

Row | SMILES | pKi
1 | Nc1nc2c(F)cccc2c2nc(Cc3ccccc3CN3CCN(c4nc5ccccc5o4)CC3)cn12 | 7.70
2 | Nc1nc2ccccc2c2nc(Cc3ccccc3)cn12 [Ex-02, 2-benzylimidazo[1,2-c]quinazolin-5-amine] | 8.24
3 | COc1ccc2nc(N)n3cc(Cc4ccccc4)nc3c2c1 [Ex-04, 2-benzyl-9-methoxyimidazo[1,2-c]quinazolin-5-amine] | 7.05
4 | COc1cccc2nc(N)n3cc(Cc4ccccc4)nc3c12 [Ex-05, 2-benzyl-10-methoxyimidazo[1,2-c]quinazolin-5-amine] | 6.19
5 | Nc1nc2cc(F)ccc2c2nc(Cc3ccccc3)cn12 [Ex-07, 2-benzyl-8-fluoroimidazo[1,2-c]quinazolin-5-amine] | 8.34
6 | Nc1nc2ccc(F)cc2c2nc(Cc3ccccc3)cn12 [Ex-08, 2-benzyl-9-fluoroimidazo[1,2-c]quinazolin-5-amine] | 8.44
7 | Nc1nc2cccc(F)c2c2nc(Cc3ccccc3)cn12 [Ex-09, 2-benzyl-10-fluoroimidazo[1,2-c]quinazolin-5-amine] | 8.20
8 | Nc1nc2c(OC(F)(F)F)cccc2c2nc(Cc3ccccc3)cn12 [Ex-10, 2-benzyl-7-(trifluoromethoxy)imidazo[1,2-c]quinazolin-5-amine] | 8.21
9 | Nc1nc2c(F)ccc(Br)c2c2nc(Cc3ccccc3)cn12 [Ex-12, 2-benzyl-10-bromo-7-fluoroimidazo[1,2-c]quinazolin-5-amine] | 8.11
10 | Nc1nc2cc(N3CCOCC3)c(F)cc2c2nc(Cc3ccccc3)cn12 [Ex-13, 2-benzyl-9-fluoro-8-morpholinoimidazo[1,2-c]quinazolin-5-amine] | 6.04
11 | COc1cccc2c1nc(N)n1cc(Cc3ccccc3N3CCOCC3)nc21 [Ex-19, 7-methoxy-2-(2-morpholinobenzyl)imidazo[1,2-c]quinazolin-5-amine] | 8.35
12 | COc1cccc2c1nc(N)n1cc(Cc3cccc(-c4ccccc4)c3)nc21 [Ex-24, 2-([1,1′-biphenyl]-3-ylmethyl)-7-methoxyimidazo[1,2-c]quinazolin-5-amine] | 8.00
13 | Nc1nc2ccccc2c2nc(Cc3ccccc3CN3CCOCC3)cn12 [Ex-25, 2-(2-(morpholinomethyl)benzyl)imidazo[1,2-c]quinazolin-5-amine] | 7.99
14 | Nc1nc2c(F)cccc2c2nc(Cc3ccccc3-c3ccccc3)cn12 [Ex-27, 2-([1,1′-biphenyl]-2-ylmethyl)-7-fluoroimidazo[1,2-c]quinazolin-5-amine] | 8.59
15 | COc1cccc2c1nc(N)n1cc(Cc3cc(C(F)(F)F)ccc3N3CCOCC3)nc21 [Ex-30, 7-methoxy-2-(2-morpholino-5-(trifluoromethyl)benzyl)imidazo[1,2-c]quinazolin-5-amine] | 7.42
16 | Nc1nc2c(F)cccc2c2nc(Cc3cccc(CN4CCOCC4)c3)cn12 [Ex-33, 7-fluoro-2-(3-(morpholinomethyl)benzyl)imidazo[1,2-c]quinazolin-5-amine] | 8.52
17 | Nc1nc2c(F)cccc2c2nc(Cc3cccc(Cc4ccccc4)c3)cn12 [Ex-34, 2-(3-benzylbenzyl)-7-fluoroimidazo[1,2-c]quinazolin-5-amine] | 7.68
18 | Nc1nc2c(F)cccc2c2nc(Cc3ccccc3CN3CCOCC3)cn12 [Ex-35, 7-fluoro-2-(2-(morpholinomethyl)benzyl)imidazo[1,2-c]quinazolin-5-amine] | 8.22
19 | COc1cccc2c1nc(N)n1cc(Cc3ccccc3N3CCCCC3)nc21 [Ex-36, 7-methoxy-2-(2-(piperidin-1-yl)benzyl)imidazo[1,2-c]quinazolin-5-amine] | 8.55
20 | Nc1nc2c(F)cccc2c2nc(Cc3cc(F)ccc3O)cn12 [Ex-37, 2-((5-amino-7-fluoroimidazo[1,2-c]quinazolin-2-yl)methyl)-4-fluorophenol] | 7.74
21 | COc1cccc2c1nc(N)n1cc(Cc3ccc(N4CCOCC4)nc3)nc21 [Ex-39, 7-methoxy-2-((6-morpholinopyridin-3-yl)methyl)imidazo[1,2-c]quinazolin-5-amine] | 8.01
22 | COc1cccc2c1nc(N)n1cc(Cc3ccnc(N4CCOCC4)c3)nc21 [Ex-40, 7-methoxy-2-((2-morpholinopyridin-4-yl)methyl)imidazo[1,2-c]quinazolin-5-amine] | 8.00
23 | COc1cccc2c1nc(N)n1cc(Cc3ccc(N4CCOCC4)cc3)nc21 [Ex-41, 7-methoxy-2-(4-morpholinobenzyl)imidazo[1,2-c]quinazolin-5-amine] | 7.82

The next lines start with the values.

Row | pKi | SMILES
24 | 9.40 | COc1cccc2c1nc(N)n1cc(Cc3ccccc3)nc21 [Ex-01, 2-benzyl-7-methoxyimidazo[1,2-c]quinazolin-5-amine]
25 | 8.59 | COc1ccc2c(c1)nc(N)n1cc(Cc3ccccc3)nc21 [Ex-03, 2-benzyl-8-methoxyimidazo[1,2-c]quinazolin-5-amine]
26 | 9.05 | Nc1nc2c(F)cccc2c2nc(Cc3ccccc3)cn12 [Ex-06, 2-benzyl-7-fluoroimidazo[1,2-c]quinazolin-5-amine]
27 | 8.70 | COc1c(F)ccc2c1nc(N)n1cc(Cc3ccccc3)nc21 [Ex-11, 2-benzyl-8-fluoro-7-methoxyimidazo[1,2-c]quinazolin-5-amine]
28 | 8.64 | Nc1nc2ccccc2c2nc(Cc3ccccc3C(F)(F)F)cn12 [Ex-14, 2-(2-(trifluoromethyl)benzyl)imidazo[1,2-c]quinazolin-5-amine]
29 | 8.70 | Nc1nc2ccccc2c2nc(Cc3cccc4cccnc34)cn12 [Ex-15, 2-(quinolin-8-ylmethyl)imidazo[1,2-c]quinazolin-5-amine]
30 | 9.52 | COc1cccc2c1nc(N)n1cc(Cc3cccc4cccnc34)nc21 [Ex-16, 7-methoxy-2-(quinolin-8-ylmethyl)imidazo[1,2-c]quinazolin-5-amine]
31 | 9.10 | COc1cccc2c1nc(N)n1cc(Cc3ccccc3C(F)(F)F)nc21 [Ex-17, 7-methoxy-2-(2-(trifluoromethyl)benzyl)imidazo[1,2-c]quinazolin-5-amine]
32 | 9.00 | COc1cccc2c1nc(N)n1cc(Cc3ccc(F)cc3F)nc21 [Ex-18, 2-(2,4-difluorobenzyl)-7-methoxyimidazo[1,2-c]quinazolin-5-amine]
33 | 8.85 | COc1cccc2c1nc(N)n1cc(Cc3ccccc3N(C)C)nc21 [Ex-20, 2-(2-(dimethylamino)benzyl)-7-methoxyimidazo[1,2-c]quinazolin-5-amine]
34 | 9.10 | COc1cccc2c1nc(N)n1cc(Cc3ccc(F)cc3)nc21 [Ex-21, 2-(4-fluorobenzyl)-7-methoxyimidazo[1,2-c]quinazolin-5-amine]
35 | 8.72 | COc1cccc2c1nc(N)n1cc(Cc3cccc(F)c3)nc21 [Ex-22, 2-(3-fluorobenzyl)-7-methoxyimidazo[1,2-c]quinazolin-5-amine]
36 | 8.68 | COc1cccc2c1nc(N)n1cc(Cc3c(Cl)cccc3Cl)nc21 [Ex-23, 2-(2,6-dichlorobenzyl)-7-methoxyimidazo[1,2-c]quinazolin-5-amine]
37 | 9.40 | COc1cccc2c1nc(N)n1cc(Cc3ccccc3CN3CCOCC3)nc21 [Ex-26, 7-methoxy-2-(2-(morpholinomethyl)benzyl)imidazo[1,2-c]quinazolin-5-amine]
38 | 8.68 | COc1cccc2c1nc(N)n1cc(Cc3cccc(N4CCOCC4)c3)nc21 [Ex-28, 7-methoxy-2-(3-morpholinobenzyl)imidazo[1,2-c]quinazolin-5-amine]
39 | 8.80 | COc1cccc2c1nc(N)n1cc(Cc3ccccc3N3CCCC3)nc21 [Ex-29, 7-methoxy-2-(2-(pyrrolidin-1-yl)benzyl)imidazo[1,2-c]quinazolin-5-amine]
40 | 8.68 | COc1cccc2c1nc(N)n1cc(Cc3c(O)cccc3F)nc21 [Ex-31, 2-((5-amino-7-methoxyimidazo[1,2-c]quinazolin-2-yl)methyl)-3-fluorophenol]
41 | 8.70 | Nc1nc2c(F)cccc2c2nc(Cc3cccc4cccnc34)cn12 [Ex-32, 7-fluoro-2-(quinolin-8-ylmethyl)imidazo[1,2-c]quinazolin-5-amine]
42 | 8.64 | COc1cccc2c1nc(N)n1cc(Cc3cccnc3Cl)nc21 [Ex-38, 2-((2-chloropyridin-3-yl)methyl)-7-methoxyimidazo[1,2-c]quinazolin-5-amine]
